# From US20240316066A1, “COMPOSITION COMPRISING PIP4K2C INHIBITOR AS ACTIVE INGREDIENT FOR TREATMENT OF CANCER” (GWANGJU INSTITUTE OF SCIENCE AND TECHNOLOGY, priority 2021, published 2024)
# “Also recorded” adds a separate entry of the source. Counter-ions that a name gives are not always drawn.
# Assays:
# Assay type in all cases: cell-based
# [1] = tested on: SJCRH30 human alveolar rhabdomyosarcoma cells; test: MTT assay, proliferation of rhabdomyosarcoma cells (SJCRH30); settings: for cell proliferation (MTT): SJCRH30, 5 μM and 10 μM; for cell killing effect (MTT): SJCRH30, 10 μM; for IC50: Homo sapiens, Rhabdomyosarcoma cell, SJCRH30, 24 hours, MTT, read-out: IC50 (half maximal inhibitory concentration)
# Description: (§1) SJCRH30 human alveolar rhabdomyosarcoma cells were purchased from ATCC. Cells were cultured in RPMI1640 supplemented with 10% fetal bovine serum (FBS), 1% penicillin, and streptomycin. CCD-18Co human colon fibroblasts were purchased from the Korea Cell Line Bank. Cells were cultured in DMEM supplemented with 10% fetal bovine serum (FBS), 1% penicillin, and streptomycin. All cells were cultured in an incubator at 37° C. under 5% CO2.
# (§2) Cell proliferation was evaluated through MTT analysis. SJCRH30 and CCD-18Co cells were seeded in triplicate in 96-well plates at a density of 2×10^4 cells per well. After 24 hours, each FDA-approved drug was diluted in fetal bovine serum (FBS)-free medium and the cells were treated therewith. After 24 hours of incubation, the medium was replaced with MTT solution (0.5 mg/mL) and the plates were incubated at 37° C. under 5% CO2. After 60 minutes of incubation, the supernatants were removed and 50 μL of DMSO was added to each well. The optical density in each well was measured at 570 nm using a microplate reader (VersaMax, Molecular Devices, USA).
# MTT assay was performed to evaluate the effects of FDA-approved drugs on the proliferation of rhabdomyosarcoma cells (SJCRH30). Rhabdomyosarcoma cells were treated with each of 18 drugs at concentrations of 5 μM and 10 μM, respectively, and observed after 24 hours.
# (§3) Rhabdomyosarcoma cells (SJCRH30) and colon fibroblasts (CCD-18Co) were treated with ivacaftor at concentrations of 0.625 μM, 1.25 μM, 2.5 μM, 5 μM, and 10 µM and compared.
# MTT assay was performed to compare IC50 (half maximal inhibitory concentration) values of pazopanib HCl, which is used for soft tissue sarcoma patients, and ivacaftor, against rhabdomyosarcoma cells (SJCRH30). Rhabdomyosarcoma cells were treated with each of pazopanib HCl and ivacaftor at concentrations of 0.625 μM, 1.25 μM, 2.5 μM, 5 μM, 10 µM, 20 μM, 40 μM, and 60 µM for 24 hours and then observed.
# [2] = tested on: colorectal cancer cells (HCT-116); test: MTT assay, colorectal cancer cells (HCT-116); settings: HCT-116, 0.625 μM to 10 µM, 24 hours
# Description: as §2
# (§4) MTT assay was performed by treating colorectal cancer cells (HCT-116), pancreatic cancer cells (PANC-1), lung cancer cells (A549), and breast cancer cells (MDA-MB-231) with each of ivacaftor and adapalene and treating colorectal cancer cells (HCT-116), pancreatic cancer cells (PANC-1), and lung cancer cells (A549) with dutasteride. The cells were treated with each of the three drugs at concentrations of 0.625 μM, 1.25 μM, 2.5 μM, 5 μM, and 10 µM for 24 hours and then observed.
# [3] = tested on: pancreatic cancer cells (PANC-1); test: MTT assay, pancreatic cancer cells (PANC-1); settings: PANC-1, 0.625 μM to 10 µM, 24 hours
# Description: as §2, §4
# lung cancer cells (A549) = test: MTT assay, lung cancer cells (A549); settings: A549, 0.625 μM to 10 µM, 24 hours
# Description: as §2, §4
# [4] = tested on: breast cancer cells (MDA-MB-231); test: MTT assay, breast cancer cells (MDA-MB-231); settings: MDA-MB-231, 0.625 μM to 10 µM, 24 hours
# Description: as §2, §4
# [5] = tested on: CCD-18Co human colon fibroblasts; test: MTT assay, toxicity to normal cells (CCD-18Co); settings: 0.625 μM to 10 µM, all concentrations, 24 hours
# Description: as §1, §2, §3
IC50 [1] [µM],SMILES,cell proliferation (MTT) ([1]; 24 hours),cell killing effect (MTT) ([1]; 24 hours),cell proliferation (MTT) [2],cell proliferation (MTT) [3],cell proliferation (MTT) (lung cancer cells (A549)),cell proliferation (MTT) [4],"cell number (MTT) ([1]; SJCRH30, at 1.25 μM, 2.5 μM, 5 μM and 10 μM, 24 hours)","cell number (MTT), toxicity to normal cells [5]"
–,COc1ccc(-c2ccc3cc(C(=O)O)ccc3c2)cc1C12CC3CC(CC(C3)C1)C2 [adapalene],significant decrease in cell proliferation,significant cell killing effect,significant decrease in cell proliferation,significant decrease in cell proliferation,significant decrease in cell proliferation,significant decrease in cell proliferation,–,–
–,C[C@@H](O[C@H]1OCCN(Cc2n[nH]c(=O)[nH]2)[C@H]1c1ccc(F)cc1)c1cc(C(F)(F)F)cc(C(F)(F)F)c1 [aprepitant],significant decrease in cell proliferation,significant cell killing effect,–,–,–,–,–,–
–,C[C@]12C=CC(=O)N[C@@H]1CC[C@@H]1[C@@H]2CC[C@]2(C)[C@@H](C(=O)Nc3cc(C(F)(F)F)ccc3C(F)(F)F)CC[C@@H]12 [dutasteride],significant decrease in cell proliferation,significant cell killing effect,decrease in cell proliferation,decrease in cell proliferation,decrease in cell proliferation,–,–,–
5.11,CC(C)(C)c1cc(C(C)(C)C)c(NC(=O)c2c[nH]c3ccccc3c2=O)cc1O [ivacaftor],significant decrease in cell proliferation; also recorded: highest effect on cell proliferation reduction,significant cell killing effect,–,significant decrease in cell proliferation,significant decrease in cell proliferation,significant decrease in cell proliferation,significant decrease in the cell number,no significant decrease in the cell number
40.9,Cc1ccc(Nc2nccc(N(C)c3ccc4c(C)n(C)nc4c3)n2)cc1S(N)(=O)=O [pazopanib HCl],–,–,–,–,–,–,–,–
